According to US8993585B2, “Cyclic amine substituted pyrimidinediamines as PKC inhibitors” (Rigel Pharmaceuticals, Inc., priority 2007, dated 2015):

system: Human primary T cells; experiment: IL-2 ELISA, Human Primary T Cell, Anti-CD3+CD28+ (Example 3); format: cell-based; details: Homo sapiens, T-cell, 24 h, anti-CD3+CD28 stimulation
Method: Human primary T cell isolation and culture: Human primary T cells were prepared as follows. […] The cells at the serum:ficoll interface were recovered and washed twice with 5 volumes of PBS. […] The primary T-cells were then washed twice with PBS to remove the IL-2.
Primary T cell stimulation and IL2 ELISA: Human primary T cells (100,000 cells per well) were pre-incubated with or without test compound in Yssel's medium for 1 hr at 37° C. Cells were then stimulated by transferring them to round-bottom 96-well plates pre-coated with 1 ug/ml αCD3 and 5 μg/ml αCD28. For counter assay, cells were instead stimulated by adding 8× stock solutions of PMA and ionomycin in Yssels (for final concentrations of 0.5 ng/ml PMA and 0.1 uM ionomycin, both from Calbiochem).

Compound | IC50 [µM]
COC(=O)CCN1C(C)(C)CC(Nc2nc(Nc3cc(Cl)cc(Cl)c3)ncc2F)CC1(C)C [Compound I-294] | 4.55
CC1(C)CC(Nc2nc(Nc3ccc(-c4ccc(N5CCOCC5)nc4)c(C#N)c3)ncc2F)CC(C)(C)N1 [Compound I-429] | 0.77
COC(=O)CCN1C(C)(C)CC(Nc2nc(Nc3cc(OC)cc(OC)c3)ncc2F)CC1(C)C [Compound I-292] | 2.48
COC(=O)CCN1C(C)(C)CC(Nc2nc(Nc3ccc(OC)c(OC)c3)ncc2F)CC1(C)C [Compound I-291] | 22.3
COc1cc(Nc2ncc(F)c(N(Cc3ccc4ccccc4n3)C3CC(C)(C)N(C)C(C)(C)C3)n2)cc(OC)c1 [Compound I-322] | 5.79
CN1C(C)(C)CC(Nc2nc(Nc3ccc(OC(F)(F)F)cc3)ncc2F)CC1(C)C [Compound I-231] | 1.75
CN1C(C)(C)CC(Nc2nc(Nc3cccc(OC(F)(F)F)c3)ncc2Cl)CC1(C)C [Compound I-240] | 0.683

Now from value to compound:

IC50 [µM] | Compound
0.91 | CN1C(C)(C)CC(Nc2nc(Nc3nc(-c4ccc(Oc5ccccc5)cc4)cs3)ncc2F)CC1(C)C [II-139]
4.39 | Cc1cc(NC2CC(C)(C)N(C)C(C)(C)C2)nc(Nc2ccc(N3CCN(S(C)(=O)=O)CC3)c(Cl)c2)n1 [IV-3]
19.6 | CN1C(C)(C)CC(Nc2nc(N[C@H]3CCc4ccccc43)ncc2F)CC1(C)C [II-83]
2.07 | CN1C(C)(C)CC(Nc2nc(Nc3cnc4c(c3)OC(F)(F)C(=O)N4)ncc2F)CC1(C)C [II-25]
0.168 | CCCN1C(=O)COc2cc(Nc3ncc(C#N)c(NC4CC(C)(C)N(C)C(C)(C)C4)n3)ccc21 [II-72]
0.349 | CC(C)N1C(=O)C(C)(C)Oc2cc(Nc3ncc(C#N)c(NC4CC(C)(C)N(C)C(C)(C)C4)n3)ccc21 [II-74]
0.148 | CCCN1C(=O)COc2cc(Nc3ncc(F)c(NC4CC(C)(C)N(C)C(C)(C)C4)n3)ccc21 [II-59]
2.57 | CN1C(C)(C)CC(Nc2nc(Nc3ncc([N+](=O)[O-])s3)ncc2F)CC1(C)C [II-14]
0.145 | CCN1C(=O)COc2cc(Nc3ncc(C#N)c(NC4CC(C)(C)N(C)C(C)(C)C4)n3)ccc21 [II-71]
4.11 | CN1C(C)(C)CC(Nc2nc(Nc3nc4cc(Cl)ccc4o3)ncc2F)CC1(C)C [II-12]
0.229 | CC(C)n1c(=O)oc2cc(Nc3ncc(F)c(NC4CC(C)(C)N(C)C(C)(C)C4)n3)ccc21 [II-47]
0.168 | CC(C)N1C(=O)COc2cc(Nc3ncc(F)c(NC4CC(C)(C)N(C)C(C)(C)C4)n3)ccc21 [II-61]
2.63 | CN1C(C)(C)CC(Nc2nc(Nc3ccc4c(c3)OC3(CCCCC3)O4)ncc2F)CC1(C)C [II-114]
2.18 | CN1C(C)(C)CC(Nc2nc(Nc3ccc4c(c3)oc(=O)n4CCN3CCOCC3)ncc2F)CC1(C)C [II-167]
1.85 | CN1C(C)(C)CC(Nc2nc(Nc3ccc4c(c3)CC(=O)NO4)ncc2F)CC1(C)C [II-3]
0.89 | Cc1cccc2sc(Nc3ncc(F)c(NC4CC(C)(C)N(C)C(C)(C)C4)n3)nc12 [II-19]

same assay, conditions: anti-CD3+CD28 stimulation, 24 hours

Compound | IC50 [µM]
COc1ccc(Nc2ncc(F)c(NC3CCC(C)(C)N(C)C(C)(C)C3)n2)cc1C(F)(F)F (stereo not drawn) [Compound I-268, 5-Fluoro-N2-[4-methoxy-3-trifluoromethyl]phenyl-N4-(1,2,2,7,7-pentamethylazepan-4-yl)-2,4-pyrimidinediamine] | 31.7
Cc1cc(Nc2ncc(F)c(NC3CC(C)(C)N(C)C(C)(C)C3)n2)ccc1-c1cnn(C)c1 [Compound I-151] | 0.635
CN1C(C)(C)CC(Nc2nc(Nc3ccc(F)c(-c4ccoc4)c3)ncc2F)CC1(C)C [Compound I-192] | 0.941
CC(=O)N1CCN(c2ccc(Nc3ncc(F)c(NC4CC(C)(C)N(C)C(C)(C)C4)n3)cc2Cl)CC1 [Compound I-67] | 0.346
Cc1ccc(Nc2ncc(F)c(NC3CC(C)(C)N(C)C(C)(C)C3)n2)cc1-n1cnnn1 [Compound I-398] | 0.05
CN1C(C)(C)CC(Nc2nc(Nc3ccc(O)cc3)ncc2F)CC1(C)C [Compound I-252] | 10.2
Cc1ccc(Nc2ncc(F)c(NC3CCC(C)(C)N(C)C(C)(C)C3)n2)cc1C#N (stereo not drawn) [Compound I-263, 5-Fluoro-N2-[4-(methyl)-3-cyano]phenyl-N4-(1,2,2,7,7-pentamethylazepan-4-yl)-2,4-pyrimidinediamine] | 10.9
COc1ccc(Nc2nccc(NC3CC(C)(C)N(C)C(C)(C)C3)n2)cc1Cl [Compound I-226] | 1.14
CN1C(C)(C)CC(Nc2nc(Nc3ccc(-c4cc5ccccc5s4)c(Cl)c3)ncc2F)CC1(C)C [Compound I-156] | 2.89
COc1ccc(Nc2ncc([N+](=O)[O-])c(NC3CC(C)(C)N(C)C(C)(C)C3)n2)cc1Cl [Compound I-71] | 0.632
CSc1nnnn1-c1cccc(Nc2ncc(F)c(NC3CC(C)(C)N(C)C(C)(C)C3)n2)c1 [Compound I-399] | 0.05
CN1C(C)(C)CC(Nc2nc(Nc3cccc(OC(F)(F)F)c3)ncc2F)C1(C)C (stereo not drawn) [Compound I-284, 5-Fluoro-N2-(3-trifluoromethoxy)phenyl-N4-(1,2,2,5,5-pentamethylpyrrolidin-3-yl)-2,4-pyrimidinediamine] | 3.04
CN1C(C)(C)CC(Nc2nc(Nc3cc(Cl)cc(Cl)c3)ncc2F)C1(C)C (stereo not drawn) [Compound I-279, 5-Fluoro-N2-(3,5-dichloro) phenyl-N4-(1,2,2,5,5-pentamethylpyrrolidin-3-yl)-2,4-pyrimidinediamine] | 7.44
CC(C)OC(=O)Nc1cccc(Nc2ncc(F)c(NC3CC(C)(C)N(C)C(C)(C)C3)n2)c1 [Compound I-139] | 1.57
CCOc1ccc(Nc2ncc(F)c(NC3CC(C)(C)N(C)C(C)(C)C3)n2)cc1-n1nnnc1CC [Compound I-409] | 0.05
Cc1csc(-c2ccc(Nc3ncc(F)c(NC4CC(C)(C)N(C)C(C)(C)C4)n3)cc2C(F)(F)F)c1 [Compound I-116] | 1.23
CN1C(C)(C)CC(Nc2nc(Nc3cccc(-c4ccncc4)c3)ncc2F)CC1(C)C [Compound I-79] | 0.552
CN1C(C)(C)CC(Nc2nc(Nc3ccc(N4CCC(F)(F)CC4)c(F)c3)ncc2F)CC1(C)C [Compound I-51] | 1.01

Compound | IC50 [µM]
CCCN1CCN(c2cc(Nc3ncc(F)c(NC4CC(C)(C)N(C)C(C)(C)C4)n3)ccc2Cl)CC1 [Compound I-56] | 2.38
COc1ccc(Nc2ncc(F)c(NC3CC(C)(C)N(C)C3(C)C)n2)cc1C(F)(F)F (stereo not drawn) [Compound I-283, 5-Fluoro-N2-(4-methoxy-3-trifluoromethyl)phenyl-N4-(1,2,2,5,5-pentamethylpyrrolidin-3-yl)-2,4-pyrimidinediamine] | 2.7
CN1C(C)(C)CC(Nc2nc(Nc3cccc(NS(C)(=O)=O)c3)ncc2F)CC1(C)C [Compound I-243] | 0.684
CN1CCN(c2ccc(Nc3ncc(F)c(NC4CCC(C)(C)N(C)C(C)(C)C4)n3)cc2C(F)(F)F)CC1 (stereo not drawn) [Compound I-270, 5-Fluoro-N2-[4-methylpiperizine-3-trifluoromethyl]phenyl-N4-(1,2,2,7,7-pentamethylazepan-4-yl)-2,4-pyrimidinediamine] | 3.45
CN1C(C)(C)CC(Nc2nc(Nc3ccc4c(c3)CCC(=O)N4)ncc2F)CC1(C)C [II-2] | 1.4
CC1(C)CC(Nc2nc(Nc3cccc(-n4cnnn4)c3)ncc2C#N)CC(C)(C)N1 [Compound I-393] | 0.43
Cc1nnnn1-c1cccc(Nc2ncc(C#N)c(NC3CC(C)(C)N(C)C(C)(C)C3)n2)c1 [Compound I-462] | 0.27
CN1C(C)(C)CC(Nc2nc(Nc3ccc(F)c(F)c3)ncc2F)CC1(C)C [Compound I-21] | 0.414
COc1cc(Nc2ncc(C#N)c(NC3CC(C)(C)NC(C)(C)C3)n2)cc(-n2cnnn2)c1 [Compound I-403] | 0.5
COc1cc(Nc2ncc(F)c(NC3CC(C)(C)N(C)C3(C)C)n2)cc(OC)c1OC (stereo not drawn) [Compound I-282, 5-Fluoro-N2-(3,4,5-trimethoxy)phenyl-N4-(1,2,2,5,5-pentamethylpyrrolidin-3-yl)-2,4-pyrimidinediamine] | 15.3
CN1C(C)(C)CC(Nc2nc(Nc3ccc(C(=O)NC4CC4)c(C(F)(F)F)c3)ncc2F)CC1(C)C [Compound I-230] | 1.09
CN1C(C)(C)CC(Nc2nc(Nc3ccc(F)c(-c4cc5ccccc5s4)c3)ncc2F)CC1(C)C [Compound I-181] | 1.32
CN1CCC(c2ccc(Nc3ncc(F)c(NC4CC(C)(C)N(C)C(C)(C)C4)n3)cc2)CC1 [Compound I-221] | 1.27
Cc1ccc(Nc2ncc(Br)c(NC3CC(C)(C)N(C)C(C)(C)C3)n2)cc1C#N [Compound I-277] | 0.206
Cc1cc(C)cc(Nc2ncc(C)c(NC3CC(C)(C)N(C)C(C)(C)C3)n2)c1 [Compound I-17] | 0.963
COc1ccc(Nc2ncc(F)c(NC3CC(C)(C)N(C)C3(C)C)n2)cc1OC (stereo not drawn) [Compound I-281, 5-Fluoro-N2-(3,4-dimethoxy)phenyl-N4-(1,2,2,5,5-pentamethylpyrrolidin-3-yl)-2,4-pyrimidinediamine] | 17.1
COc1ccc(Nc2ncc(F)c(NC3CC(C)(C)N(C)C(C)(C)C3)n2)cc1-c1cc2ccccc2s1 [Compound I-195] | 1.12
CC1(C)CC(Nc2nc(Nc3cccc(-n4cnnn4)c3)ncc2F)CC(C)(C)N1 [Compound I-391] | 0.22

Now from value to compound:

IC50 [µM] | Compound
0.811 | CC(C)N1C(=O)C(C)(C)S(=O)(=O)c2cc(Nc3ncc(F)c(NC4CC(C)(C)N(C)C(C)(C)C4)n3)ccc21 [II-67]
1.18 | CCN1C(=O)C(F)(F)Oc2cc(Nc3ncc(C#N)c(NC4CC(C)(C)NC(C)(C)C4)n3)cnc21 [II-73]
0.695 | CCN1C(=O)C(C)(C)S(=O)(=O)c2cc(Nc3ncc(F)c(NC4CC(C)(C)N(C)C(C)(C)C4)n3)ccc21 [II-66]
0.261 | CN1C(=O)C2(CCC2)Oc2cc(Nc3ncc(F)c(NC4CC(C)(C)N(C)C(C)(C)C4)n3)ccc21 [II-68]
